The subject of this assay is immobilized GST-tagged bait protein domains. As to the kind of experiment: ProP-PD phage selections (HD2 P8, sublibraries, HD2 P3, HD1 P8) with NGS and confidence level. Conditions: for p3_HD2 confidence / p3_HD2 mean counts / p3_HD2 count proportions: HD2 P3 library. In kind it is binding, human.
The mark [1] stands for this setting: bait CRK_SH3_1_P46108_124_198, confidence level (4 = High, 2-3 = Medium, 1 = Low).
Setting [2] is: bait CRK_SH3_1_P46108_124_198, mean NGS counts over replicate selections.
[3] abbreviates: bait CRK_SH3_1_P46108_124_198, mean proportion of NGS counts.
Where [4] appears, read: library HD2, bait EPS15_EH__P42566_121_215, whether the validated benchmark motif instance was recovered in the ProP-PD selection (TRUE/FALSE).
Setting [5] is: library HD2, bait VASP_EVH1__P50552_1_114, validated benchmark motif instance, in_library_check TRUE, TRUE/FALSE = instance recovered in ProP-PD selection.
Where [6] appears, read: HD2 library, bait TLN1_PTB__Q9Y490_309_401, known motif instance of the benchmarking set found (TRUE) or not found (FALSE) among selected peptides.
[7] abbreviates: HD2 library, bait CALM1_EF-hand__P0DP23_2_149, benchmark motif instance, in_library_check FALSE, in_library_coverage 0.
Where [8] appears, read: HD2 library, bait TNKS_TANK-peptide-bind__O95271_174_649, known motif instance of the benchmarking set found (TRUE) or not found (FALSE) among selected peptides.
Where [9] appears, read: bait CALM1_EF-hand__P0DP23_2_149, library HD2, benchmarking set of validated motif instances, TRUE = motif instance recovered in the ProP-PD selection.
The mark [10] stands for this setting: bait MAP1LC3A_ATG8 (Q9H492 2-121), HD2 library, benchmark motif instance recovered in the ProP-PD selection (TRUE/FALSE).
Where [11] appears, read: bait PABP-B_PABP__P11940_544_623, HD2 library, whether the validated benchmark motif instance was recovered in the ProP-PD selection (TRUE/FALSE).
The mark [12] stands for this setting: bait PABP-B_PABP__P11940_544_623, HD2 library, confidence level (1-4) of best matching selected peptide.
Where [13] appears, read: bait PABP-B_PABP__P11940_544_623, HD2 library, specificity score of best matching selected peptide.
Setting [14] is: bait CRK_SH3_1_P46108_124_198, library HD2, benchmarking set of validated motif instances, TRUE = motif instance recovered in the ProP-PD selection.

Turning to QQVPAPPLPAKKNLPT, under setting [1], the p3_HD2 confidence worked out at 4. The substance also yielded a p3_HD2 mean counts under setting [2] of 120.7. Under setting [3], this substance came in with a p3_HD2 count proportions of 0.00436.
As for QRTNPSPTNPFSSDLQKTF, under setting [4], the motif_found entry is recorded as “FALSE”.
Turning to QSGSGGIFPPPPDDDIYDG, under setting [5], the motif_found result is given as “FALSE”.
For the substance QSKPLVDIDLISFDDD, the HD2_nc confidence (bait CLTC_Clathrin-propeller__Q00610_1_364, HD2 P8 nucleocytoplasmic sublibrary, confidence level (4 = High, 2-3 = Medium, 1 = Low)) is reported as 4. Further, under “bait CLTC_Clathrin-propeller__Q00610_1_364, HD2 P8 nucleocytoplasmic sublibrary, mean NGS counts over replicate selections”, the HD2_nc mean counts was 25.67. Also, the HD2_nc count proportions (bait CLTC_Clathrin-propeller__Q00610_1_364, HD2 P8 nucleocytoplasmic sublibrary, mean proportion of NGS counts) amounted to 0.0005729.
Regarding RARAKWDTANNPLYKEATSTFT, the motif_found result under setting [6] is “FALSE”.
Turning to RCTSPGGSYGHLSIGTMSPSLG, the motif_found result (bait SUFU_SUFU__Q9UMX1_1_484, HD2 library, whether the validated benchmark motif instance was recovered in the ProP-PD selection (TRUE/FALSE)) is given as “FALSE”.
Consider RCVNSRQIRPPPDGSDCTSDLA [RAD54L 690-697], for which the motif_found entry (HD2 library, bait TNKS_TANK-peptide-bind__O95271_174_649, benchmark motif instance, in_library_check FALSE, in_library_coverage 0) is reported as “FALSE”.
On to RDAEAHPWLSDYDDLTSAT, for which the motif_found entry (bait PEX14_Pex14__O75381_16_84, HD2 library, whether the validated benchmark motif instance was recovered in the ProP-PD selection (TRUE/FALSE)) is given as “FALSE”.
Regarding “REMEEKSALIIQKHWRGYRERKNFHQQRQSL [IQCB1 391-407]”, under setting [7], the motif_found result is given as “FALSE”.
As to RGRGDGQE, the motif_found result under setting [8] is listed as “FALSE”.
Turning to RHLPPPLPSKTPPPPP, the p3_HD2 confidence under setting [1] is on record as 3. Further, under setting [2], the p3_HD2 mean counts is on record as 27.0. Under setting [3], the p3_HD2 count proportions amounted to 0.0009618.
Take “RKKWKQSVRLISLCQRLSR,KWKQSVRLISLCQRLS [DAPK1]”: under setting [9], the motif_found entry is “FALSE”.
Regarding RKNTKSMNFDNPVYRKTTEEED [LRP8 860-867], the motif_found entry (HD2 library, bait TLN1_PTB__Q9Y490_309_401, benchmark motif instance, in_library_check FALSE, in_library_coverage 0) is on record as “FALSE”.
On to “RKQEEVSAIIIQRAYRRYLLKQKVKKVSSIY [SCN2A 1909-1925]”, for which, under setting [7], the motif_found entry is “FALSE”.
On the same count and under the same terms, to “RKQYRKVLYCVVIIQKNYRAFLLRRRFLHLKKAA [MYO10 766-785]” belongs “FALSE”.
RKRAKV: the motif_found result (bait KPNA4_Arm (O00629 68-487), HD2 library, benchmark motif instance recovered in the ProP-PD selection (TRUE/FALSE)) is recorded as “FALSE”.
On to RKTLVSMPPLPGLDLKGSESPE [RFX5], for which the motif_found entry (bait ANKRA2_Ank__Q9H9E1_142_313, library HD2, benchmarking set of validated motif instances, TRUE = motif instance recovered in the ProP-PD selection) was “FALSE”.
In the case of RLRHALWPSLPDLHRVLGQYLRDT, under “library HD2, bait ANKRA2_Ank__Q9H9E1_142_313, motif instance NOT in library (in_library_check FALSE, in_library_coverage 0)”, the motif_found entry is “FALSE”.
Regarding RMATAEDLPLPPPPALEDL, the motif_found result under setting [5] was “FALSE”.
Turning to RMSQIKRLLSE, the motif_found entry (bait PTK2_Focal-AT__Q05397_891_1050, HD2 library, whether the validated benchmark motif instance was recovered in the ProP-PD selection (TRUE/FALSE)) is reported as “FALSE”.
Consider RPPDDAVFDIITDEELCQIQ, for which the motif_found entry under setting [10] is “FALSE”.
Consider RRKWQKTGNAVRAIGRLSSM [MYLK], for which the motif_found entry under setting [9] is reported as “FALSE”.
On to RRMPAANLIQAAWRLYSTD [KCNQ4 338-356], for which the motif_found result under setting [7] was “FALSE”.
Take “RRRFLHLKKAAIVFQKQLRGQIARRVYRQLLAEK [MYO10 789-808]”: under setting [7], the motif_found result is listed as “FALSE”.
For RRRWKLSFSIVSLCNHLTR [DAPK2], the motif_found result under setting [9] is on record as “FALSE”.
Consider RSEIGHSPPPAYTPMS, for which the motif_found entry (bait NEDD4_WW_4 (P46934 890-928), HD2 library, benchmark motif instance recovered in the ProP-PD selection (TRUE/FALSE)) is listed as “TRUE”. For the setting “bait NEDD4_WW_4 (P46934 890-928), HD2 library, confidence level (1-4) of best matching peptide”, this substance yielded a best_confidence of 2. This substance yielded a best_specificity (bait NEDD4_WW_4 (P46934 890-928), HD2 library, specificity score of best matching peptide) of 1.
Consider RVTENNLQTPNPTASEFIPKGGSTSRL, for which the motif_found result under setting [11] was “FALSE”.
Turning to SAEPRPRTRSNPEGAEDRAVGA, under setting [8], the motif_found entry is “FALSE”.
For SALSPNAKEFIFPNMQ, the best_confidence under setting [12] is 3. Besides, under setting [13], the best_specificity is on record as 1. Further, the motif_found entry under setting [11] is given as “TRUE”.
In the case of SARILKEYNPFEEEDEEEE, the motif_found result under setting [4] is recorded as “FALSE”.
For the substance SASYPPYQATGPPNTSYMPGMPGGI [TSG101], the motif_found result (bait CEP55_EABR__Q53EZ4_160_217, library HD2, benchmarking set of validated motif instances, TRUE = motif instance recovered in the ProP-PD selection) is given as “FALSE”.
Consider SDLFPAPPQIPSRPVRIPPG [DNM2], for which the motif_found result under setting [14] is given as “FALSE”.
As to SDRTAAPGNPFRAKSEESE, the motif_found result under setting [4] is on record as “FALSE”.
Regarding SEEGDNESRSAGDGTDWEKEDQ, the motif_found entry under setting [8] is listed as “FALSE”.
SETMSMPQLTVPASGS gave an HD2 confidence (bait ANKRA2_Ank__Q9H9E1_142_313, library HD2 P8) of 4.
As to SFGGGFADF [EPS15], the motif_found entry (bait AP2B1_adaptin__P63010_700_937, library HD2, benchmarking set of validated motif instances, TRUE = motif instance recovered in the ProP-PD selection) is “TRUE”.
Consider “SFLSRRAARTIQTAFRQYRMNKNFERLRSSA [IQSEC2]”, for which the motif_found entry under setting [9] was “FALSE”.
Substance SFNPDAQVFVPIGSQD gave a best_confidence under setting [12] of 3. For the same substance, the best_specificity under setting [13] was 1. Further, the motif_found entry under setting [11] is “TRUE”.
Under “bait AP2B1_adaptin__P63010_700_937, HD1 P8 library, confidence level (4 = High, 2-3 = Medium, 1 = Low)”, SGETQTTSPAIPWAAF gave an HD confidence of 4. Moreover, for the setting “bait AP2B1_adaptin__P63010_700_937, HD1 P8 library, mean NGS counts over replicate selections”, the HD mean counts is given as 10.25. Under “bait AP2B1_adaptin__P63010_700_937, HD1 P8 library, mean proportion of NGS counts”, this substance displayed an HD count proportions of 0.003472.
For SGGSDEAPPKPSRPGYPSPR [PTK2], the motif_found result under setting [14] was “FALSE”.
Regarding SHLGTYGVFTNAAFDPSP----, under setting [6], the motif_found result was “FALSE”.
Take SIDAHTFDFETIPHPNIEQ: the motif_found result is given as “FALSE” under setting [10] and “FALSE” (bait MAP1LC3B_ATG8 (Q9GZQ8 2-119), HD2 library, benchmark motif instance recovered in the ProP-PD selection (TRUE/FALSE)).
For the substance SILEQTDMEAVEALVCMSSWGQRS, the motif_found result (bait SIN3A_PAH__Q96ST3_295_383, HD2 library, whether the validated benchmark motif instance was recovered in the ProP-PD selection (TRUE/FALSE)) was “FALSE”.
With SKSSNASWPPEFQPGVPWKGIQNIDPES, the motif_found result under setting [11] is reported as “FALSE”.
SKYITTIAGVMTLS: the motif_found entry (library HD2, bait CALM1_EF-hand__P0DP23_2_149, motif instance NOT in library (in_library_check FALSE, in_library_coverage 0)) is listed as “FALSE”.
Take “SLEQSERRRRLLELQKSKRLDYVNHARRLA,ERRRRLLELQKSKRLDYVNHARR,PRLSQYKSKYSSLEQSERRRRLLELQKSKRLDYVNHARR,EQSERRRRLLELQKSKRLDYVNHARR (UniProt O95149 42-64, looked up, fragment) [SNUPN 42-64]”: under “HD2 library, bait KPNB1_Heat_1_Q14974_1_485, benchmark motif instance, in_library_check FALSE, in_library_coverage 0”, the motif_found result was “FALSE”.
Regarding SLMTDEPGLDNPAYVSSAEDGQ, the motif_found result under setting [6] is “FALSE”.
SLWTALSNFSMPSFPG registered an HD2-1mM_CaCl confidence (bait CALM1 EF-hand (P0DP23, 2-149), HD2 library selection with 1mM_CaCl, confidence level (4 = High, 2 or 3 = Medium, 1 = Low)) of 4. The substance further returned an HD2 confidence (bait CALM1 EF-hand (P0DP23, 2-149), HD2 library selection, confidence level (4 = High, 2 or 3 = Medium, 1 = Low)) of 4.
For the substance SNGSSINWPPEFHPGVPWKGLQNIDPEN, the motif_found result under setting [11] is listed as “FALSE”.
Consider SNPFMTGAPTGQFPTG, for which the best_specificity (library HD2, bait EPS15_EH__P42566_121_215, best matching peptide) is 1. The substance also registered a best_confidence (library HD2, bait EPS15_EH__P42566_121_215, confidence level of best matching peptide (4 High, 2-3 Medium, 1 Low)) of 3. Also, the motif_found entry under setting [4] is “TRUE”.
Consider SNTNRFQVSVINENHE, for which, for the setting “bait OXSR1___O95747_434_527, HD2 P8 cytoplasm sublibrary, confidence level (4 = High, 2-3 = Medium, 1 = Low)”, the HD2_cytoplasm confidence was found to be 4.
For the substance SPALTAPPPAYATLGPRP, the motif_found entry is, setting by setting: (bait NEDD4_WW_4_P46934_890_928, HD2 library, whether the validated benchmark motif instance was recovered in the ProP-PD selection (TRUE/FALSE)) “FALSE”; (library HD2, bait YAP1_WW_1_P46937_169_207, validated benchmark motif instance, in_library_check TRUE, TRUE/FALSE = instance recovered in ProP-PD selection) “FALSE”.
Turning to SPANSFHFKEAWKHAIQKAKHMPDPWA [EEF2K], the motif_found entry under setting [9] is given as “FALSE”.
Consider SPFLPDLNFFAADSCL, for which, where the note is “bait ANKRA2_Ank__Q9H9E1_142_313, HD2 P8 selection, confidence level -4 to 4: 4 = High, 3 or 2 = Medium, 1 = Low, 0 = Filtered/Noise”, the HD2 confidence amounted to 2.
